According to patent publication US10633375B2, “Oxopicolinamide derivative, preparation method therefor and pharmaceutical use thereof” (Jiangsu Hengrui Medicine Co., Ltd., priority 2016, dated 2020):

Experiments:
[1] = target: Coagulation Factor XIa protease (Homo sapiens (Human), UniProt P03951); assay: Inhibition of Factor XIa detected by absorption photometry; type: biochemical; conditions: absorbance at 405 nm, 10 minutes at 37° C.
Summary of the method: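 Read-out was absorbance at 405 nm after 10 min incubation at 37° C. Compound dilutions in 100% DMSO (200 to 0.002 μM) were combined with FXIa (2.5 μg/ml solution), then FXIa-specific chromogenic substrate (2 mM solution) was added; both are stock concentrations, not final.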

human blood = assay: In vitro anticoagulant effect on human blood (APTT, CT2); conditions: Table 2; concentration corresponding to 2 times the APTT of the blank control, human plasma
Protocol: Test Example 2: Determination of In Vitro Anticoagulant Effect of the Compounds of the Present Invention on Human Blood
1. Experimental Materials
Plasma: Human blood was collected in blood collection tubes containing no anticoagulant, and then 3.8% sodium citrate (volume ratio 1:9) was added. The tubes were centrifuged at 2500 rpm for 10 minutes at room temperature, and then the plasma was collected and stored at −80° C.;
Reagents: APTT reagent (Activated partial thromboplastin time assay kit, SIEMENS, Art. No. B4218-1), calcium chloride solution;
Instrument: Coagulation instrument (SYSMEX, CA-500).
The divided plasma was melted at room temperature and mixed well. 10000 μM the test compound dissolved in 100% DMSO was diluted to 3000, 300, 200, 150, 75, 30, 10, 3, 0.3 μM with 100% DMSO, and the blank was 100% DMSO. The reagent, plasma, and compound were placed in corresponding positions in the coagulation instrument, and APTT detection of the compound was carried out.
Curve fitting was carried out by graphpad and CT2 was calculated, i.e., the concentration of the compound corresponding to 2 times the APTT of the blank control.

Chain of Coagulation Factor XIa protease (P03951 388-625): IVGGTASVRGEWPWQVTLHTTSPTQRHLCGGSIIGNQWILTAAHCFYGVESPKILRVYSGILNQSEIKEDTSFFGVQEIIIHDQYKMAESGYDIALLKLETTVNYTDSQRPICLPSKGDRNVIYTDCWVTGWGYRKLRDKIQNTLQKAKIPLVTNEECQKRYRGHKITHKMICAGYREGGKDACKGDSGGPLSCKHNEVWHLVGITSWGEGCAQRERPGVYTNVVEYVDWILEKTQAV
Chain of Coagulation Factor XIa protease (P03951 19-387 partner): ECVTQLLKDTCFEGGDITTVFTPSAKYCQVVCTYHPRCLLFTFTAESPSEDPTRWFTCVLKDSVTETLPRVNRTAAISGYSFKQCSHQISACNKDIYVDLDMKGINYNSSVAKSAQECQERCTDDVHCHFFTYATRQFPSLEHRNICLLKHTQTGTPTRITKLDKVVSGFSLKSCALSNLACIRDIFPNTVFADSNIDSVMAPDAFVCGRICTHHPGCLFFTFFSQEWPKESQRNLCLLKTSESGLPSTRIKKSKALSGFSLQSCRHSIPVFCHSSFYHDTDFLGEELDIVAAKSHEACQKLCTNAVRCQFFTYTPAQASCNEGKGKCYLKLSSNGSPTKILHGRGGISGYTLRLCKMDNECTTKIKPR

IC50 [1] | SMILES | CT2, concentration doubling APTT (human blood)
36 nM | COc1cn([C@@H](Cc2ccccc2)C(=O)Nc2ccc3nn(C)cc3c2)c(=O)cc1-c1cc(Cl)ccc1C(C)=O [Example 20, (S)-2-(4-(2-acetyl-5-chlorophenyl)-5-methoxy-2-oxopyridin-1(2H)-yl)-N-(2-methyl-2H-indazol-5-yl)-3-phenylpropanamide] | 6.5 µM
29 nM | CCNC(=O)c1ccc(NC(=O)[C@H](Cc2ccccc2)n2cc(OC)c(-c3cc(Cl)ccc3C(C)=O)cc2=O)cc1 [Example 37, (S)-4-(2-(4-(2-acetyl-5-chlorophenyl)-5-methoxy-2-oxopyridin-1 (2H)-yl)-3-phenylpropanamido)-N-ethylbenzamide] | 7.8 µM
38 nM | COc1cn(C(Cc2ccccc2)C(=O)Nc2ccc(C(=O)O)cc2)c(=O)cc1-c1cc(Cl)ccc1C(=O)CC1CC1 (stereo not drawn) [Example 39, 4-(2-(4-(5-chloro-2-(2-cyclopropylacetyl)phenyl)-5-methoxy-2-oxopyridin-1(2H)-yl)-3-phenylpropanamido)benzoic acid] | 8.3 µM
2680 nM | COc1cn([C@H](Cc2ccccn2)C(=O)Nc2ccc(C(=O)O)cc2)c(=O)cc1-c1cc(Cl)ccc1C(C)=O [Example 81, (R)-4-(2-(4-(2-acetyl-5-chlorophenyl)-5-methoxy-2-oxopyridin-1(2H)-yl)-3-(pyridin-2-yl)propanamido)benzoic acid] | >10000 µM
92 nM | COc1cn([C@@H](Cc2ccccn2)C(=O)Nc2ccc(C(N)=O)cc2)c(=O)cc1-c1cc(Cl)ccc1C(C)=O [Example 85, (S)-4-(2-(4-(2-acetyl-5-chlorophenyl)-5-methoxy-2-oxopyridin-1(2H)-yl)-3-(pyridin-2-yl)propanamido)benzamide] | 6.5 µM
42 nM | COc1cn([C@@H](Cc2cccc(C#N)c2)C(=O)Nc2ccc(C(=O)O)cc2)c(=O)cc1-c1cc(Cl)ccc1C(C)=O [Example 89, (S)-4-(2-(4-(2-acetyl-5-chlorophenyl)-5-methoxy-2-oxopyridin-1(2H)-yl)-3-(3-cyanophenyl)propanamido)benzoic acid] | 5.7 µM
 | CCC(=O)c1ccc(Cl)cc1-c1cc(=O)n([C@@H](Cc2ccn(C3CC3)n2)C(=O)Nc2ccc(C(=O)O)cc2)cc1OC [Example 92, (S)-4-(2-(4-(5-chloro-2-propionylphenyl)-5-methoxy-2-oxopyridin-1 (2H)-yl)-3-(1-cyclopropyl-1H-pyrazol-3-yl)propanamido)benzoic acid] | 1.2 µM
42 nM | COc1cn(C(Cc2ccn(C3CC3)n2)C(=O)Nc2ccc(C(=O)O)cc2)c(=O)cc1-c1cc(Cl)ccc1C(C)=O (stereo not drawn) [Example 93, 4-(2-(4-(2-acetyl-5-chlorophenyl)-5-methoxy-2-oxopyridin-1(2H)-yl)-3-(1-cyclopropyl-1H-pyrazol-3-yl)propanamido)benzoic acid] | 2.9 µM
24 nM | COc1cn([C@@H](Cc2ccn(C3CC3)n2)C(=O)Nc2ccc(C(=O)O)cc2)c(=O)cc1-c1cc(Cl)ccc1C(C)=O [Example 94, (S)-4-(2-(4-(2-acetyl-5-chlorophenyl)-5-methoxy-2-oxopyridin-1(2H)-yl)-3-(1-cyclopropyl-1H-pyrazol-3-yl)propanamido)benzoic acid] | 2.2 µM
32 nM | COc1cn(C(Cc2ccn(C3CC3)n2)C(=O)Nc2ccc3nccnc3c2)c(=O)cc1-c1cc(Cl)ccc1C(C)=O (stereo not drawn) [Example 96, 2-(4-(2-acetyl-5-chlorophenyl)-5-methoxy-2-oxopyridin-1(2H)-yl)-3-(1-cyclopropyl-1H-pyrazol-3-yl)-N-(quinoxalin-6-yl)propanamide] | 6.7 µM
36 nM | COc1cn(C(Cc2ccn(C3CC3)n2)C(=O)Nc2ccc3nn(C)cc3c2)c(=O)cc1-c1cc(Cl)ccc1C(C)=O (stereo not drawn) [Example 97, 2-(4-(2-acetyl-5-chlorophenyl)-5-methoxy-2-oxopyridin-(2H)-yl)-3-(l-cyclopropyl-1H-pyrazol-3-yl)-N-(2-methyl-2H-indazol-5-yl)propanamide] | 5.4 µM
40 nM | COc1cn(C(Cc2ccn(C3CC3)n2)C(=O)Nc2ccc3ncncc3c2)c(=O)cc1-c1cc(Cl)ccc1C(C)=O (stereo not drawn) [Example 98, 2-(4-(2-acetyl-5-chlorophenyl)-5-methoxy-2-oxopyridin-1(2H)-yl)-3-(1-cyclopropyl-1H-pyrazol-3-yl)-N-(quinazolin-6-yl)propanamide] | 7.6 µM
 | CCC(=O)c1ccc(Cl)cc1-c1cc(=O)n([C@H](CCOC(C)(C)C)C(=O)Nc2ccc(C(=O)O)cc2)cc1OC [Example 109, (R)-4-(4-(tert-butoxy)-2-(4-(5-chloro-2-propionylphenyl)-5-methoxy-2-oxopyridin-1(2H)-yl)butanamido)benzoic acid] | >10000 µM
 | [2H]C([2H])([2H])Oc1cn([C@@H](CCOC(C)(C)C)C(=O)Nc2ccc(C(=O)O)cc2)c(=O)cc1-c1cc(Cl)ccc1C(=O)CC [Example 177, 4-[[(2S)-4-tert-butoxy-2-[4-(5-chloro-2-propionyl-phenyl)-2-oxo-5-(trideuteromethoxy)-1-pyridyl]butyryl]amino]benzoic acid] | 1.5 µM
 | [2H]C([2H])([2H])Oc1cn([C@H](CCOC(C)(C)C)C(=O)Nc2ccc(C(=O)O)cc2)c(=O)cc1-c1cc(Cl)ccc1C(=O)CC [Example 178, 4-[[(2R)-4-tert-butoxy-2-[4-(5-chloro-2-propionyl-phenyl)-2-oxo-5-(trideuteromethoxy)-1-pyridyl]butyryl]amino]benzoic acid] | >10000 µM
 | [2H]C([2H])([2H])Oc1cn([C@@H](Cc2ccccc2)C(=O)Nc2ccc(C(=O)O)cc2)c(=O)cc1-c1cc(Cl)ccc1C(C)=O [Example 179, 4-[[(2S)-2-[4-(2-acetyl-5-chloro-phenyl)-2-oxo-5-(trideuteromethoxy)-1-pyridyl]-3-phenyl-propionyl]amino]benzoic acid] | 3.3 µM
 | [2H]C([2H])([2H])Oc1cn([C@H](Cc2ccccc2)C(=O)Nc2ccc(C(=O)O)cc2)c(=O)cc1-c1cc(Cl)ccc1C(C)=O [Example 180, 4-[[(2R)-2-[4-(2-acetyl-5-chloro-phenyl)-2-oxo-5-(trideuteromethoxy)-1-pyridyl]-3-phenyl-propionyl]amino]benzoic acid] | >10000 µM
 | [2H]c1c([2H])c([2H])c(C([2H])([2H])[C@@H](C(=O)Nc2ccc(C(=O)O)cc2)n2cc(OC)c(-c3cc(Cl)ccc3C(C)=O)cc2=O)c([2H])c1[2H] [Example 181, 4-[[(2S)-2-[4-(2-acetyl-5-chloro-phenyl)-5-methoxy-2-oxo-1-pyridyl]-3,3-dideutero-3-(2,3,4,5,6-pentadeuterophenyl)propionyl]amino]benzoic acid] | 2.3 µM
 | [2H]C([2H])([2H])C(=O)c1ccc(Cl)cc1-c1cc(=O)n([C@@H](Cc2ccccc2)C(=O)Nc2ccc(C(=O)O)cc2)cc1OC [Example 183, 4-[[(2S)-2-[4-[5-chloro-2-(2,2,2-trideuteroacetyl)phenyl]-5-methoxy-2-oxo-1-pyridyl]-3-phenyl-propionyl]amino]benzoic acid] | 2.6 µM
 | [2H]C([2H])([2H])C(=O)c1ccc(Cl)cc1-c1cc(=O)n([C@H](Cc2ccccc2)C(=O)Nc2ccc(C(=O)O)cc2)cc1OC [Example 184, 4-[[(2R)-2-[4-[5-chloro-2-(2,2,2-trideuteroacetyl)phenyl]-5-methoxy-2-oxo-1-pyridyl]-3-phenyl-propionyl]amino]benzoic acid] | >10000 µM

SMILES | IC50 [1] | CT2, concentration doubling APTT (human blood)
COCCC(C(=O)Nc1ccc2[nH]c(C(=O)O)cc2c1)n1cc(OC)c(-c2cc(Cl)ccc2C(C)=O)cc1=O (stereo not drawn) [Example 1, 5-(2-(4-(2-acetyl-5-chlorophenyl)-5-methoxy-2-oxopyridin-1(2H)-yl)-4-methoxybutanamido)-1H-indole-2-carboxylic acid] | 34 nM | 4.4 µM
COCC[C@@H](C(=O)Nc1ccc2[nH]c(C(=O)O)cc2c1)n1cc(OC)c(-c2cc(Cl)ccc2C(C)=O)cc1=O [Example 2, (S)-5-(2-(4-(2-acetyl-5-chlorophenyl)-5-methoxy-2-oxopyridin-1(2H)-yl)-4-methoxybutanamido)-1H-indole-2-carboxylic acid] | 19 nM | 2.9 µM
COCC[C@H](C(=O)Nc1ccc2[nH]c(C(=O)O)cc2c1)n1cc(OC)c(-c2cc(Cl)ccc2C(C)=O)cc1=O [Example 3, (R)-5-(2-(4-(2-acetyl-5-chlorophenyl)-5-methoxy-2-oxopyridin-1 (2H)-yl)-4-methoxybutanamido)-1H-indole-2-carboxylic acid] | 1740 nM | >10000 µM
CCC(=O)c1ccc(Cl)cc1-c1cc(=O)n(C(Cc2ccccc2)C(=O)Nc2ccc(C(=O)O)cc2)cc1OC (stereo not drawn) [Example 8, 4-(2-(4-(5-chloro-2-propionylphenyl)-5-methoxy-2-oxopyridin-1(2H)-yl)-3-phenylpropanamido)benzoic acid] | 17 nM | 6.4 µM
